Columns and labels:
[1] = system: Sucrose-Administered Rats; assay: Inhibitory action against increase of blood glucose for sucrose-administered rats; assay type: in vivo, Male Sprague Dawley rats; settings: with 2 g/kg sucrose
Protocol: Male Sprague Dawley rats with body weight of 150 to 200 grams were fasted overnight, and 2 g/kg of sucrose was administered orally by using a stomach tube. The compound of this invention was simultaneously administered in a similar way at the rate of 1 to 100 mg/kg, and blood was drawn from the tail vein of each rat at suitable time intervals and blood glucose levels were measured by a method using glucose oxidase.

[2] = system: Glucose-administered Rats; assay: Inhibitory action against increase of glucose in blood of glucose-administered rats; assay type: in vivo, Male Sprague Dawley rats; settings: with 2 g/kg glucose; for Blood Glucose Concentration: 5 rats
Protocol: Male Sprague Dawley rats with body weights ranging from 150 to 200 grams were fasted overnight, and then 2 g/kg of glucose was administered orally by using a stomach tube. The compound of this invention was also administered simultaneously in an amount of 10 to 100 mg/kg, and blood was drawn from the tail vein of each rat at suitable time intervals, and blood glucose levels were measured according to a method using glucose oxidase (Blood Sugar Test, TC-M-III, Boehringer Mannheim A.G.).

[3] = system: mice; assay: Acute toxicity (LD50) in mice; assay type: in vivo
[4] = Acute toxicity (LD50) in mice; assay type: in vivo; settings: mouse, in vivo
[5] = system: Starch-Administered Rats; assay: Inhibitory action against increase of blood glucose for starch-administered rats; assay type: in vivo, Male Sprague Dawley rats; settings: with 1 g/kg starch; for Blood Glucose Concentration: 5 rats
Protocol: Male Sprague Dawley rats with body weight of 150 to 200 grams were fasted overnight, and 1 g/kg of starch was administered orally by using a stomach tube. The compound of this invention was simultaneously administered at the dose of 10 to 100 mg/kg, and blood was drawn from the tail vein of each rat and blood glucose levels were examined by a method using glucose oxidase.

[6] = system: healthy; assay: Glucose level in the blood of healthy man after oral carbohydrate; assay type: in vivo, human; settings: 1 to 1000 mg/kg orally, with 50 to 100 grams of glucose
[7] = system: humans and other animals; assay: Ability to inhibit or reduce the increase of glucose levels in humans and other animals; assay type: in vivo; settings: upon administration of glucose or a glucose producing carbohydrate
[8] = system: rats; assay: Antidiabetic action model: glucose level in blood of rats given glucose orally; assay type: in vivo, Male Sprague Dawley rats; settings: 1 to 1000 mg/kg, with glucose 0.5 to 4 g/kg orally
Protocol: Male Sprague Dawley rats of body weight of 150 to 200 grams are fasted overnight and glucose is then administered orally at the rate of 0.5 to 4 g/kg by using a stomach tube. Blood is drawn from the tail vein of each rat at suitable time intervals to determine glucose level in the blood. The glucose content in the blood increases rapidly to cause hyperglycemia.

[9] = system: lipid biosynthesis; assay: Ability to inhibit lipid biosynthesis
[10] = 10 mg/kg oral, 0 min after administration
[11] = 10 mg/kg oral, 15 min after administration
[12] = 10 mg/kg oral, 30 min after administration
[13] = 10 mg/kg oral, 60 min after administration
[14] = 100 mg/kg oral, 0 min after administration
[15] = 100 mg/kg oral, 15 min after administration
[16] = 100 mg/kg oral, 30 min after administration
[17] = 100 mg/kg oral, 60 min after administration

OC[C@H]1NC[C@H](O)[C@@H](O)[C@@H]1O [compound of this invention, 2(R),3(R),4(R),5(S)-2-hydroxymethyl-3,4,5-trihydroxypiperidine]
Blood Glucose Concentration ([1]; 1 mg/kg oral, 0 min after administration, 5 rats): 69 mg % | Blood Glucose Concentration ([1]; 1 mg/kg oral, 15 min after administration, 5 rats): 98 mg % | Blood Glucose Concentration ([1]; 1 mg/kg oral, 30 min after administration, 5 rats): 121 mg % | Blood Glucose Concentration ([1]; 1 mg/kg oral, 60 min after administration, 5 rats): 127 mg % | Blood Glucose Concentration ([1]; 10 mg/kg oral, 0 min after administration, 6 rats): 47 mg % | Blood Glucose Concentration ([1]; 10 mg/kg oral, 15 min after administration, 6 rats): 57 mg % | Blood Glucose Concentration ([1]; 10 mg/kg oral, 30 min after administration, 6 rats): 52 mg % | Blood Glucose Concentration ([1]; 10 mg/kg oral, 60 min after administration, 6 rats): 97 mg % | Increase of glucose in the blood ([1]; 10 mg/kg): totally inhibited | Blood Glucose Concentration ([1]; 100 mg/kg oral, 0 min after administration, 5 rats): 52 mg % | Blood Glucose Concentration ([1]; 100 mg/kg oral, 15 min after administration, 5 rats): 66 mg % | Blood Glucose Concentration ([1]; 100 mg/kg oral, 30 min after administration, 5 rats): 63 mg % | Blood Glucose Concentration ([1]; 100 mg/kg oral, 60 min after administration, 5 rats): 64 mg % | Blood Glucose Concentration [2, 10]: 59 mg % | Blood Glucose Concentration [2, 11]: 100 mg % | Blood Glucose Concentration [2, 12]: 108 mg % | Blood Glucose Concentration [2, 13]: 107 mg % | Blood Glucose Concentration [2, 14]: 52 mg % | Blood Glucose Concentration [2, 15]: 59 mg % | Blood Glucose Concentration [2, 16]: 58 mg % | Blood Glucose Concentration [2, 17]: 63 mg % | Increase of glucose in the blood ([2]; 100 mg/kg): totally inhibited | toxicity [3]: very low | LD50 ([4]; intravenous administration): > 800 mg/kg | LD50 ([4]; oral administration): > 1200 mg/kg | Blood Glucose Concentration [5, 10]: 53 mg % | Blood Glucose Concentration [5, 11]: 67 mg % | Blood Glucose Concentration [5, 12]: 80 mg % | Blood Glucose Concentration [5, 13]: 83 mg % | Blood Glucose Concentration [5, 14]: 52 mg % | Blood Glucose Concentration [5, 15]: 57 mg % | Blood Glucose Concentration [5, 16]: 63 mg % | Blood Glucose Concentration [5, 17]: 59 mg % | Increase of glucose in the blood ([5]; 100 mg/kg): totally inhibit increase of glucose in the blood | rise of the glucose content in the blood [6]: rise of the glucose content in the blood is inhibited corresponding to the dosage | increase of glucose levels [7]: inhibit or reduce the increase of glucose levels | rise of the glucose content in the blood [8]: rise of the glucose content in the blood is inhibited | inhibition of lipid biosynthesis [9]: inhibit lipid biosynthesis

From patent publication USRE30886E, “Method and composition for reducing blood glucose levels” (Nippon Shinyaku Company Ltd., priority 1975, dated 1982)
